The record followed here is patent US20240228572A1 (i2o Therapeutics, Inc., priority 2020, published 2024).

*1 amine or outer side, *2 acyl side, *3 side chain or, on linkers, in order; H or OH if unused. Where a SMILES comes first, the peptide text is derived from it. Bridges are numbered along the chain shown (N, C = ends). Side-chain parts run from the residue outwards. [ ]: non-standard residue; d: D form. The star is where a group is joined. C20 diacid = O=C(O)CCCCCCCCCCCCCCCCCCC(=O)*; γGlu = O=C(O)[C@H](CCC(=O)[*:2])N[*:1]; AEEA = NCCOCCOCC(=O)O; Aib = CC(C)(N)C(=O)O Where only a bound is given, the exact number is not on record here.

Assay [1] has as its target T1, human Glucagon receptor (GCGR) (Homo sapiens, UniProt P47871).
T1 construct: A cDNA fragment encoding the full-length open reading frame of the human GCGR; expressed in transfected cells; host or cells: CHO-K1, pcDNA3.1+, Lipofectamine 2000
Description: cAMP accumulation assay, CHO-K1 cells expressing human GCGR. It is filed as cell-based. The following applies: mean pEC50, Table 10. The source says: In the presence of the non-specific cAMP/cGMP phosphodiesterase inhibitor, 3-isobutyl-1-methylxanthine (IBMX), accumulating cAMP can be measured in vitro using common detection methods. Thus, it is possible to estimate an in vitro potency (pEC50) for peptides activating each of these receptors using fit dose-response curves for cAMP accumulation.
A cDNA fragment encoding the full-length open reading frame of the cynomolgus monkey GLP-1R (Genebank accession #XM_028847603 was cloned into pcDNA3.1+ for expression in CHO-K1 cells. A cDNA fragment encoding the full-length open reading frame of the human GCGR (Genebank accession #NM_000160 was cloned into pcDNA3.1+ for expression in CHO-K1 cells. A cDNA fragment encoding the full-length open reading frame of the rat GCGR (Genebank accession #NM_12091 was cloned into pcDNA3.1+ for expression in CHO-K1 cells. A cDNA fragment encoding the full-length open reading frame of the cynomolgus monkey GCGR (Genebank accession #XM_005585255 was cloned into pcDNA3.1+ for expression in CHO-K1 cells.
On day 1, CHO-K1 cells were plated at 1.5 million cells per T75 flask in 90% F12-K media supplemented with 10% FBS. On day 3 cells were transfected with 40 mcg of each expression plasmid using Lipofectamine 2000 transfection reagent. On day 5, cells were dispensed at 1000 cells per well in white 384-well OptiPlates in 5 mcL of assay buffer consisting of 1×HBSS, 5 mM HEPES, 0.5 mM IBMX, and 0.1% casein.
Peptides were serially diluted 4-fold in assay buffer to final concentrations ranging from 1×10^−9 M to 9.5×10^−16 M. Two assay controls consisting of 50 mcM forskolin (cAMP system maximum) or assay buffer only (cAMP system minimum) were also prepared. Five microliters of each peptide-concentration, or assay control, was added to triplicate wells and incubated for thirty minutes at room temperature. During this incubation step a 4× europium labelled cAMP tracer solution and a 4× Ulight®-anti-cAMP solution (consisting of an anti-cAMP monoclonal antibody labelled with Ulight™ dye) was prepared according to the manufacturer's protocol (PerkinElmer LANCE Ultra cAMP kit). Following this incubation, 5 mcL europium labelled cAMP and 5 mcL Ulight anti-cAMP antibody was added to each well. The plate was covered to prevent evaporation and incubated for 60 minutes at room temperature in the dark. Plates were read on an Envision fluorescent plate reader (PerkinElmer).
Test values were first normalized to the system maximum and system minimum averaged values in Excel using the formula: (test value−system min average)/(system max average -system min average)*100. Normalized test values represent a baseline corrected percentage of the system maximum cAMP response induced by forskolin. Data from up to 3 replicate tests were analyzed for each peptide. Potency values were estimated using GraphPad Prism software (v7.04) by fitting data to a 4-parameter logistic curve model: Y=Bottom+(Top−Bottom)/(1+10^((LogEC50−X))). The Hill slope was constrained to 1.0. EC50 values were converted to pEC50 values using the formula: pEC50=−Log (EC50).
On the technique in general: cAMP levels reflect the balance of adenylyl cyclase and phosphodiesterase activity.

The target of assay [2] is T2, human GLP-1 receptor (GLP-1R) (Homo sapiens, UniProt P43220).
T2 construct: expressed in transfected cells
T2 sequence (P43220 24-463): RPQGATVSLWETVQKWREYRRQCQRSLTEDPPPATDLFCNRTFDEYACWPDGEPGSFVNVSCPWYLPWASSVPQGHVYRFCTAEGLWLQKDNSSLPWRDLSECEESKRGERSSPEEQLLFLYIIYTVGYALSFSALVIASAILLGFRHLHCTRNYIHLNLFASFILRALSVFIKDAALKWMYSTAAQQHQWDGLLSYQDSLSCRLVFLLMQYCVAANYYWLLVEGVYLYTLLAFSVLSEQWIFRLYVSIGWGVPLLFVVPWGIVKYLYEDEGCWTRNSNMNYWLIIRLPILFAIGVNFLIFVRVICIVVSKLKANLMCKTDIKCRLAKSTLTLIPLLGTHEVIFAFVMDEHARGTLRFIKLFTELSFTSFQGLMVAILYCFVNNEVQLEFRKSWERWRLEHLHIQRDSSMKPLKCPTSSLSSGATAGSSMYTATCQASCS
In words: cAMP accumulation assay, CHO-K1 cells stably expressing human GLP-1R. It is filed as cell-based. The following applies: cAMP accumulation, mean pEC50, Table 10.

T1 sequence (P47871 26-477): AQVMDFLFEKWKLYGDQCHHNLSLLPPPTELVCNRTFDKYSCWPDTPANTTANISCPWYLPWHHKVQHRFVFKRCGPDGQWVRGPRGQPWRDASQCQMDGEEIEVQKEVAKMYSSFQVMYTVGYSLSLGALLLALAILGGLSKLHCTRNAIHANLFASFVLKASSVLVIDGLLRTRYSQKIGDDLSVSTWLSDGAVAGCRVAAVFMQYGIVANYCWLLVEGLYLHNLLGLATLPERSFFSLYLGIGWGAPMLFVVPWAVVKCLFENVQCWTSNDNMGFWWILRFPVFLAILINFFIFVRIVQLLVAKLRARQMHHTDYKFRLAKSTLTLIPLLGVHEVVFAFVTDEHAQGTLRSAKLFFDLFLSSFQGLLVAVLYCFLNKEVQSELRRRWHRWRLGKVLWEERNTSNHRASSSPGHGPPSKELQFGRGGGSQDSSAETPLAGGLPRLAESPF

Usually EC50 stands for the concentration that produces a half-maximal response. Low readings indicate an effect from little substance, high ones a need for much substance. As to `CC(C)C[C@H](NC(=O)[C@H](Cc1ccc(O)cc1)NC(=O)[C@H](CCCCN)NC(=O)[C@H](CO)NC(=O)[C@H](Cc1ccc(O)cc1)NC(=O)[C@H](CC(=O)O)NC(=O)[C@H](CO)NC(=O)[C@@H](NC(=O)[C@H](Cc1ccccc1)NC(=O)[C@@H](NC(=O)CNC(=O)[C@H](Cc1c[nH]cn1)NC(=O)[C@H](CO)NC(=O)[C@@H](N)Cc1ccc(O)cc1)[C@@H](C)O)[C@@H](C)O)C(=O)N[C@@H](CC(=O)O)C(=O)N[C@@H](CCCCNC(=O)CC[C@H](NC(=O)CC[C@H](NC(=O)COCCOCCNC(=O)CCCCCCCCCCCCCCCCCCC(=O)O)C(=O)O)C(=O)O)C(=O)N[C@@H](CCCCN)C(=O)N[C@@H](Cc1ccc(O)cc1)C(=O)N[C@@H](C)C(=O)N[C@@H](CCC(N)=O)C(=O)N[C@@H](CCC(=O)O)C(=O)N[C@@H](Cc1ccccc1)C(=O)NC(C)(C)C(=O)N[C@@H](CCC(=O)O)C(=O)N[C@@H](Cc1c[nH]c2ccccc12)C(=O)N[C@@H](CC(C)C)C(=O)N[C@@H](CCC(=O)O)C(=O)N[C@@H](CC(=O)O)C(=O)N[C@@H](CCC(=O)O)C(=O)N1CCC[C@H]1C(=O)N[C@@H](CO)C(=O)N[C@@H](CO)C(=O)NCC(=O)N[C@@H](C)C(=O)N1CCC[C@H]1C(=O)N1CCC[C@H]1C(=O)N1CCC[C@H]1C(=O)N[C@@H](CO)C(=O)O` [Compound A8] (H-YSHGTFTSDYSKYLDK([γGlu-γGlu-AEEA-C20 diacid])KYAQEF[Aib]EWLEDEPSSGAPPPS-OH; N-terminus assumed), the EC50 was 0.126 nM in assay [1] and above 1 nM in assay [2].
For `CC(C)C[C@H](NC(=O)[C@H](Cc1ccc(O)cc1)NC(=O)[C@H](CCCCN)NC(=O)[C@H](CO)NC(=O)[C@H](Cc1ccc(O)cc1)NC(=O)[C@H](CC(=O)O)NC(=O)[C@H](CO)NC(=O)[C@@H](NC(=O)[C@H](Cc1ccccc1)NC(=O)[C@@H](NC(=O)CNC(=O)[C@H](Cc1c[nH]cn1)NC(=O)[C@H](CO)NC(=O)[C@@H](N)Cc1ccc(O)cc1)[C@@H](C)O)[C@@H](C)O)C(=O)N[C@@H](CC(=O)O)C(=O)N[C@@H](CCCCNC(=O)CC[C@H](NC(=O)CC[C@H](NC(=O)COCCOCCNC(=O)CCCCCCCCCCCCCCCCCCC(=O)O)C(=O)O)C(=O)O)C(=O)N[C@@H](CCCCN)C(=O)N[C@@H](Cc1ccc(O)cc1)C(=O)N[C@@H](C)C(=O)N[C@@H](CCC(N)=O)C(=O)N[C@@H](CCC(=O)O)C(=O)N[C@@H](Cc1ccccc1)C(=O)NC(C)(C)C(=O)N[C@@H](CCCCN)C(=O)N[C@@H](Cc1c[nH]c2ccccc12)C(=O)N[C@@H](CC(C)C)C(=O)N[C@@H](CCC(=O)O)C(=O)N[C@@H](CC(=O)O)C(=O)N[C@@H](CCC(=O)O)C(=O)N1CCC[C@H]1C(=O)N[C@@H](CO)C(=O)N[C@@H](CO)C(=O)NCC(=O)N[C@@H](C)C(=O)N1CCC[C@H]1C(=O)N1CCC[C@H]1C(=O)N1CCC[C@H]1C(=O)N[C@@H](CO)C(=O)O` [Compound A9] (H-YSHGTFTSDYSKYLDK([γGlu-γGlu-AEEA-C20 diacid])KYAQEF[Aib]KWLEDEPSSGAPPPS-OH; N-terminus assumed), the results for the 50% effective concentration (EC50) in assay [1] and in assay [2] were 0.0251 nM and above 1 nM, respectively.
As to `CC(C)C[C@H](NC(=O)[C@H](Cc1ccc(O)cc1)NC(=O)[C@H](CCCCN)NC(=O)[C@H](CO)NC(=O)[C@H](Cc1ccc(O)cc1)NC(=O)[C@H](CC(=O)O)NC(=O)[C@H](CO)NC(=O)[C@@H](NC(=O)[C@H](Cc1ccccc1)NC(=O)[C@@H](NC(=O)CNC(=O)[C@H](Cc1c[nH]cn1)NC(=O)[C@H](CO)NC(=O)[C@@H](N)Cc1ccc(O)cc1)[C@@H](C)O)[C@@H](C)O)C(=O)N[C@@H](CC(=O)O)C(=O)N[C@@H](CCCCNC(=O)CC[C@H](NC(=O)CC[C@H](NC(=O)COCCOCCNC(=O)CCCCCCCCCCCCCCCCCCC(=O)O)C(=O)O)C(=O)O)C(=O)N[C@@H](CCCCN)C(=O)N[C@@H](Cc1ccc(O)cc1)C(=O)N[C@@H](C)C(=O)N[C@@H](CCC(N)=O)C(=O)N[C@@H](CCC(=O)O)C(=O)N[C@@H](Cc1ccccc1)C(=O)NC(C)(C)C(=O)N[C@@H](CO)C(=O)N[C@@H](Cc1c[nH]c2ccccc12)C(=O)N[C@@H](CC(C)C)C(=O)N[C@@H](CCC(=O)O)C(=O)N[C@@H](CC(=O)O)C(=O)N[C@@H](CCC(=O)O)C(=O)N1CCC[C@H]1C(=O)N[C@@H](CO)C(=O)N[C@@H](CO)C(=O)NCC(=O)N[C@@H](C)C(=O)N1CCC[C@H]1C(=O)N1CCC[C@H]1C(=O)N1CCC[C@H]1C(=O)N[C@@H](CO)C(=O)O` [Compound A10] (H-YSHGTFTSDYSKYLDK([γGlu-γGlu-AEEA-C20 diacid])KYAQEF[Aib]SWLEDEPSSGAPPPS-OH; N-terminus assumed), the EC50 in assay [1] is 0.0398 nM; in assay [2], above 1 nM.
In the case of `CC(C)C[C@H](NC(=O)[C@H](Cc1ccc(O)cc1)NC(=O)[C@H](CCCCN)NC(=O)[C@H](CO)NC(=O)[C@H](Cc1ccc(O)cc1)NC(=O)[C@H](CC(=O)O)NC(=O)[C@H](CO)NC(=O)[C@@H](NC(=O)[C@H](Cc1ccccc1)NC(=O)[C@@H](NC(=O)CNC(=O)[C@H](Cc1c[nH]cn1)NC(=O)[C@H](CO)NC(=O)[C@@H](N)Cc1ccc(O)cc1)[C@@H](C)O)[C@@H](C)O)C(=O)N[C@@H](CC(=O)O)C(=O)N[C@@H](CCCCNC(=O)CC[C@H](NC(=O)CC[C@H](NC(=O)COCCOCCNC(=O)CCCCCCCCCCCCCCCCCCC(=O)O)C(=O)O)C(=O)O)C(=O)N[C@@H](CCCCN)C(=O)N[C@@H](Cc1ccc(O)cc1)C(=O)N[C@@H](C)C(=O)N[C@H]1CCCCNC(=O)CC[C@@H](C(=O)N[C@@H](Cc2c[nH]c3ccccc23)C(=O)N[C@@H](CC(C)C)C(=O)N[C@@H](CCC(=O)O)C(=O)N[C@@H](CC(=O)O)C(=O)N[C@@H](CCC(=O)O)C(=O)N2CCC[C@H]2C(=O)N[C@@H](CO)C(=O)N[C@@H](CO)C(=O)NCC(=O)N[C@@H](C)C(=O)N2CCC[C@H]2C(=O)N2CCC[C@H]2C(=O)N2CCC[C@H]2C(=O)N[C@@H](CO)C(=O)O)NC(=O)[C@H](C(C)C)NC(=O)[C@H](Cc2ccccc2)NC(=O)[C@H](CCC(=O)O)NC1=O` [Compound A11] (H-YSHGTFTSDYSKYLDK([γGlu-γGlu-AEEA-C20 diacid])KYAKEFVEWLEDEPSSGAPPPS-OH; lactam 20-24), the EC50 in assay [1] is 0.002 nM; in assay [2], above 1 nM.
On to `CC(C)C[C@H](NC(=O)[C@H](Cc1ccc(O)cc1)NC(=O)[C@H](CCCCN)NC(=O)[C@H](CO)NC(=O)[C@H](Cc1ccc(O)cc1)NC(=O)[C@H](CC(=O)O)NC(=O)[C@H](CO)NC(=O)[C@@H](NC(=O)[C@H](Cc1ccccc1)NC(=O)[C@@H](NC(=O)CNC(=O)[C@H](Cc1c[nH]cn1)NC(=O)[C@H](CO)NC(=O)[C@@H](N)Cc1ccc(O)cc1)[C@@H](C)O)[C@@H](C)O)C(=O)N[C@@H](CC(=O)O)C(=O)N[C@@H](CCCCNC(=O)CC[C@H](NC(=O)CC[C@H](NC(=O)COCCOCCNC(=O)CCCCCCCCCCCCCCCCCCC(=O)O)C(=O)O)C(=O)O)C(=O)N[C@@H](CCCCN)C(=O)N[C@@H](Cc1ccc(O)cc1)C(=O)N[C@@H](C)C(=O)N[C@H]1CCC(=O)NCCCC[C@@H](C(=O)N[C@@H](Cc2c[nH]c3ccccc23)C(=O)N[C@@H](CC(C)C)C(=O)N[C@@H](CCC(=O)O)C(=O)N[C@@H](CC(=O)O)C(=O)N[C@@H](CCC(=O)O)C(=O)N2CCC[C@H]2C(=O)N[C@@H](CO)C(=O)N[C@@H](CO)C(=O)NCC(=O)N[C@@H](C)C(=O)N2CCC[C@H]2C(=O)N2CCC[C@H]2C(=O)N2CCC[C@H]2C(=O)N[C@@H](CO)C(=O)O)NC(=O)[C@H](C(C)C)NC(=O)[C@H](Cc2ccccc2)NC(=O)[C@H](CCC(=O)O)NC1=O` [Compound A12] (H-YSHGTFTSDYSKYLDK([γGlu-γGlu-AEEA-C20 diacid])KYAEEFVKWLEDEPSSGAPPPS-OH; lactam 20-24), for which the EC50 in assay [1] was 0.00158 nM; in assay [2], above 1 nM.
